Where “and” joins values, the source holds several entries; their conditions need not be identical. Equal values may be shown once. Read-outs that look alike come from different tables or passages of the source.
Legend:
[1] = test system: Ba/F3 cells expressing KIF5B–RET^WT; assay: Growth inhibition assay in Ba/F3 cells (CellTiter-Glo, 72 h); type: cell-based; conditions: Mus musculus
[2] = test system: Ba/F3 cells expressing KIF5B–RET^V804M; assay: as above; type: cell-based; conditions: replicate sets
[3] = test system: LUAD-0002AS1 cells; assay: Growth inhibition (alamarBlue, 96 h); type: cell-based, human; conditions: for raw viability signal (Source Data Fig. 3b-c): LUAD-0002AS1, replicate sets
[4] = test system: Ba/F3 KIF5B–RET^G810R allograft tumors; assay: Subcutaneous allograft efficacy study; type: in vivo, BALB/c nude mice; conditions: in mm³ (unit assumed);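 further: mean tumor volume per dosing group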
[5] = test system: TT cells (RET C634W); assay: Dose-response western blotting, EC50 for inhibition of protein phosphorylation; type: cell-based; conditions: Homo sapiens
[6] = test system: LUAD-0086AS3 cells; assay: Growth inhibition (alamarBlue, 96 h); type: cell-based, human; conditions: for raw viability signal (Source Data Fig. 3b-c): LUAD-0086AS3 (n=1, 3 replicates)
[7] = test system: Ba/F3 cells expressing KIF5B–RET^G810S; assay: Growth inhibition assay in Ba/F3 cells (CellTiter-Glo, 72 h); type: cell-based; conditions: replicate Sets 1-3
[8] = test system: Ba/F3-RET^M918T; assay: as above; type: cell-based; conditions: Mus musculus, BaF3, 72 h, read-out: GI50 value (Mean ± SD), Ba/F3-RET^M918T, CellTiter-Glo, 72 h
[9] = Homo sapiens, 96 h, read-out: IC50 for Inhibition of Growth (95% CI)

SMILES: COc1ccc(CN2C3CC2CN(c2ccc(-c4cc(OCC(C)(C)O)cn5ncc(C#N)c45)cn2)C3)cn1 [Selpercatinib]
- GI50 ([1]; BaF3, 72 h, read-out: GI50 value (Mean ± SD), Ba/F3-KIF5B::RET, CellTiter-Glo, 72 h): 6.68 ± 0.76 nM
- GI50 ([1]; BaF3, Ba/3-KIF5B-RET, replicate sets): 6.13 nM
- GI50 ([2]; Ba/3-KIF5B-RET-V804M): 36.4 nM and 32.9 nM
- GI50 ([2]; Mus musculus, BaF3, Ba/3-KIF5B-RET-V804M): 30.6 nM
- IC50 [3, 9]: 3 nM
- raw viability signal (Source Data Fig. 3b-c) ([3]; 0.01 nM): 16631.5 and 13192.5 and 12693
- raw viability signal (Source Data Fig. 3b-c) ([3]; 0.1 nM): 14296.3 and 14495.9 and 14138.2
- raw viability signal (Source Data Fig. 3b-c) ([3]; 1 nM): 14160.4 and 9635.41 and 11277.7
- raw viability signal (Source Data Fig. 3b-c) ([3]; 10 nM): 3799.84 and 3179.94 and 4108.28
- raw viability signal (Source Data Fig. 3b-c) ([3]; 100 nM): 2188.78 and 2790.7 and 3166.11
- raw viability signal (Source Data Fig. 3b-c) ([3]; 1000 nM): 1304.58 and 2278.18 and 2772.5
- raw viability signal (Source Data Fig. 3b-c) ([3]; 10000 nM): 935.372 and 1860.61 and 2356.9
- Tumor Volume Mean ([4]; Fig. 7c Ba/F3-KIF5B::RET G810R, selpercatinib 10 mg/kg BID, day 1): 153.47
- Tumor Volume Mean ([4]; Fig. 7c Ba/F3-KIF5B::RET G810R, selpercatinib 10 mg/kg BID, day 4): 195.84
- Tumor Volume Mean ([4]; Fig. 7c Ba/F3-KIF5B::RET G810R, selpercatinib 10 mg/kg BID, day 8): 432.66
- Tumor Volume Mean ([4]; Fig. 7c Ba/F3-KIF5B::RET G810R, selpercatinib 10 mg/kg BID, day 11): 585.46
- Tumor Volume Mean ([4]; Fig. 7c Ba/F3-KIF5B::RET G810R, selpercatinib 10 mg/kg BID, day 15): 999.76
- Tumor Volume Mean ([4]; Fig. 7d Ba/F3-KIF5B::RET G810R, selpercatinib 30 mg/kg BID, day 1): 157.6
- Tumor Volume Mean ([4]; Fig. 7d Ba/F3-KIF5B::RET G810R, selpercatinib 30 mg/kg BID, day 4): 307.7
- Tumor Volume Mean ([4]; Fig. 7d Ba/F3-KIF5B::RET G810R, selpercatinib 30 mg/kg BID, day 8): 440.3
- Tumor Volume Mean ([4]; Fig. 7d Ba/F3-KIF5B::RET G810R, selpercatinib 30 mg/kg BID, day 11): 551.9
- Tumor Volume Mean ([4]; Fig. 7d Ba/F3-KIF5B::RET G810R, selpercatinib 30 mg/kg BID, day 15): 795.7
- EC50 ([5]; read-out: EC50 for Inhibition of Protein Phosphorylation (95% CI), AKT S473, 2 h, densitometry): 1.9 nM
- EC50 ([5]; read-out: EC50 for Inhibition of Protein Phosphorylation (95% CI), ERK1/2 T202/Y204, 2 h, densitometry): 0.2 nM
- EC50 ([5]; read-out: EC50 for Inhibition of Protein Phosphorylation (95% CI), MEK1/2 S217/S221, 2 h, densitometry): 1.9 nM
- EC50 ([5]; read-out: EC50 for Inhibition of Protein Phosphorylation (95% CI), P70 RSK T421/S424, 2 h, densitometry): 1.7 nM
- EC50 ([5]; read-out: EC50 for Inhibition of Protein Phosphorylation (95% CI), RET Y905, 2 h, densitometry): 11.8 nM
- EC50 ([5]; read-out: EC50 for Inhibition of Protein Phosphorylation (95% CI), S6RP S235/S236, 2 h, densitometry): 0.6 nM
- IC50 [6, 9]: 84 nM
- raw viability signal (Source Data Fig. 3b-c) ([6]; 0.01 nM): 32605.6 and 32345.5 and 24840.6
- raw viability signal (Source Data Fig. 3b-c) ([6]; 0.1 nM): 24088.4 and 24382.4 and 28533.2
- raw viability signal (Source Data Fig. 3b-c) ([6]; 1 nM): 21980.7 and 23036.6 and 27631.4
- raw viability signal (Source Data Fig. 3b-c) ([6]; 10 nM): 22728.2 and 21261.8 and 26828.6
- raw viability signal (Source Data Fig. 3b-c) ([6]; 100 nM): 13108.2 and 14842.7 and 15753
- raw viability signal (Source Data Fig. 3b-c) ([6]; 1000 nM): 5050.52 and 4540.04 and 5107.48
- raw viability signal (Source Data Fig. 3b-c) ([6]; 10000 nM): 1139.12 and 1223.75 and 1244.48
- GI50 ([7]; Ba/3-KIF5B-RET-G810S): 182 nM and 173 nM
- GI50 ([7]; Mus musculus, BaF3, Ba/3-KIF5B-RET-G810S): 143 nM
- GI50 [8]: 1.24 ± 0.78 nM
